In patent US12544359B2, “1-aminosulfonyl-2-carboxypyrrole derivatives as metallo-beta-lactamase inhibitors” (INFEX Therapeutics Limited, priority 2019, dated 2026):
Where a name gives a salt, the structure may show the parent alone.

Columns and labels:
NDM-1 = NDM-1 (Klebsiella pneumoniae, UniProt C7C422); experiment: metallo-β-lactamase inhibition assay (nitrocefin); type: biochemical; settings: 1.5 nM NDM-1, 100 μM nitrocefin, 37° C., pH 7.5
Protocol: Compounds of the invention were tested in a metallo-β-lactamase inhibition assay to investigate mechanism of action of the compounds. Results are reported as the concentration of test article required to inhibit enzyme activity by 50% (IC50).
Inhibition of metallo-β-lactamase enzyme function was performed at 37° C. in buffer at pH 7.5 (50 mM HEPES, 150 mM NaCl, 0.1 mM ZnSO4, 20 μg/mL PEG4000), containing 1.5 nM NDM-1, 100 μM nitrocefin, and a range of concentrations of compound. Absorbance at 490 nm was measured using a BMG LABTECH FLUOstar Omega microplate reader every minute for 30 minutes. IC50s were determined from the average increase in OD per minute versus the Log 10 concentration of compound using GraphPad Prism.

[1] = Cytotoxicity Assay (CellTiter-Glo); type: cell-based; settings: human, Hep G2 cells (ATCC HB-8065); 24 h exposure; read-out: HepG2 CC50
Protocol: Cytotoxicity was evaluated in human Hep G2 cells (ATCC HB-8065) seeded at a density of 2×10^5 cells per well and incubated for 24 h at 37° C., 5% CO2. Cells were exposed to a doubling dilution series of test article. After 24 h exposure, the viability of the cells was determined using CellTiter-Glo® (Promega, WI, USA) according to the manufacturer's instructions. Results are reported as the concentration of test article required to reduce cell viability by 50% (CC50).

NDM-1, sequence (C7C422 whole entry, looked up, species assumed): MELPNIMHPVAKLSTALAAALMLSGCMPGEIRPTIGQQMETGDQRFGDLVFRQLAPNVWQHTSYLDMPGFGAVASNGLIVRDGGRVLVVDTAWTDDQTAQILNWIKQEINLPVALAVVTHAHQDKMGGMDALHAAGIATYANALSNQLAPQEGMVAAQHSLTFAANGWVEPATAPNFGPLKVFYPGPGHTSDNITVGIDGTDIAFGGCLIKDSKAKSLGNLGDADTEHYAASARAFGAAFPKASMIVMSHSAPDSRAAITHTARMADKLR

IC50 (NDM-1) [nM] | Compound | CC50 at 24 h [1] [µg/mL]
162 | NCC(=O)Nc1ccc(-c2ccn(S(N)(=O)=O)c2C(=O)O)cn1 [Example 93, 3-[6-[(2-Aminoacetyl)amino]-3-pyridyl]-1-sulfamoyl-pyrrole-2-carboxylic acid, sodium salt] | > 256
– | CC(=O)N1CCC(Cc2ccn(S(N)(=O)=O)c2C(=O)O)CC1 [Example 62, 3-[(1-Acetyl-4-piperidyl)methyl]-1-sulfamoyl-pyrrole-2-carboxylic acid] | > 256
1760 | NCC(=O)N1CCCC(c2ccn(S(N)(=O)=O)c2C(=O)O)C1 (centres unmarked) [Example 63, 3-[1-(2-Aminoacetyl)-3-piperidyl]-1-sulfamoyl-pyrrole-2-carboxylic acid] | > 256
527 | NS(=O)(=O)n1ccc(-c2ccc(C(=O)NCCCO)cc2)c1C(=O)O [Example 11, 3-[4-(3-Hydroxypropyl-carbamoyl)phenyl]-1-sulfamoyl-pyrrole-2-carboxylic acid] | > 256
399 | NCCN1CCC(c2ccn(S(N)(=O)=O)c2C(=O)O)CC1 [Example 85, 3-[1-(2-Aminoethyl)-4-piperidyl]-1-sulfamoyl-pyrrole-2-carboxylic acid] | > 128
248 | CNCCN(C)C(=O)C1CCC(c2ccn(S(N)(=O)=O)c2C(=O)O)CC1 (centres unmarked) [Example 87, 3-[4-[Methyl-[2-(methylamino)ethyl]carbamoyl]cyclohexyl]-1-sulfamoyl-pyrrole-2-carboxylic acid] | > 256
394 | NS(=O)(=O)n1ccc(-c2ccc(C(=O)NCCN3CCNC3=O)cc2)c1C(=O)O [Example 17, 3-[4-[2-(2-Oxoimidazolidin-1-yl)ethylcarbamoyl]phenyl]-1-sulfamoyl-pyrrole-2-carboxylic acid, ammonium salt] | > 256
131 | NS(=O)(=O)n1ccc(-c2ccc(C(=O)N3CCNCC3)cc2)c1C(=O)O [Example 27, 3-[4-(Piperazine-1-carbonyl)phenyl]-1-sulfamoyl-pyrrole-2-carboxylic acid] | > 256
– | N=C(N)NCC(=O)N1CCC(c2ccn(S(N)(=O)=O)c2C(=O)O)CC1 [Example 83, 3-[1-(2-Guanidinoacetyl)-4-piperidyl]-1-sulfamoyl-pyrrole-2-carboxylic acid] | > 256
200 | NS(=O)(=O)n1ccc(-c2ccc(C(=O)NC3CNC3)cc2)c1C(=O)O [Example 35, 3-[4-(Azetidin-3-ylcarbamoyl)phenyl]-1-sulfamoyl-pyrrole-2-carboxylic acid] | > 256
187 | NCC1CCN(C(=O)c2ccc(-c3ccn(S(N)(=O)=O)c3C(=O)O)cc2)CC1 [Example 44, 3-[4-[4-(Aminomethyl)piperidine-1-carbonyl]phenyl]-1-sulfamoyl-pyrrole-2-carboxylic acid] | > 256
843 | N#CCNC(=O)c1ccc(-c2ccn(S(N)(=O)=O)c2C(=O)O)cc1 [Example 6, 3-[4-(Cyanomethyl-carbamoyl)phenyl]-1-sulfamoyl-pyrrole-2-carboxylic acid] | > 256
– | NS(=O)(=O)n1ccc(CC2CCNCC2)c1C(=O)O [Example 57, 3-(4-Piperidylmethyl)-1-sulfamoyl-pyrrole-2-carboxylic acid hydrochloride] | > 256
– | NS(=O)(=O)n1ccc(-c2ccc(C(=O)NC3CC3)cc2)c1C(=O)O [Example 3, 3-[4-(Cyclopropyl-carbamoyl)phenyl]-1-sulfamoyl-pyrrole-2-carboxylic acid] | > 256
– | NS(=O)(=O)n1ccc(-c2ccc(C(=O)NCCCOS(=O)(=O)O)cc2)c1C(=O)O [Example 54, 1-Sulfamoyl-3-[4-(3-sulfooxypropylcarbamoyl)phenyl]pyrrole-2-carboxylic acid] | > 256
433 | CC(=O)N1CCCC(c2ccn(S(N)(=O)=O)c2C(=O)O)C1 (centres unmarked) [Example 58, 3-[1-Acetyl-3-piperidyl]-1-sulfamoyl-pyrrole-2-carboxylic acid] | –
